Earlier results on 25 compounds are cited in patent US20080044486A1, “Controlled Food Effect Composition” (priority 2003, published 2008).

In general, LogP refers to the decadic logarithm of the partition coefficient of the neutral form, usually between octanol and water.

Molecules are shown by their SMILES.

The conditions of data set [1]: oral, conventional pharmaceutical composition.

Take `CC(=O)Oc1ccccc1C(=O)O` [Acetylsalicylic acid]: in data set [1], the “Food effect in a conventional composition (references)” value (“Food effect” for short) is “Delayed absorption and reduced”.

As to `COc1cc(C)c(/C=C/C(C)=C/C=C/C(C)=C/C(=O)O)c(C)c1C` [Acitretin], the LogP is 6.4. For the same compound, in data set [1], the “Food effect” value is reported as “Increased absorption (2, 4)”.

On to `CCCCc1oc2ccccc2c1C(=O)c1cc(I)c(OCCN(CC)CC)c(I)c1` [Amiodarone], for which the “Food effect” value in data set [1] is recorded as “Increased absorption (3)”.

In the case of `CO[C@H]1O[C@@H]2O[C@@]3(C)CC[C@H]4[C@H](C)CC[C@@H]([C@H]1C)[C@@]24OO3` [Artemether], the LogP is given as 3.5. The “Food effect” value in data set [1] is given as “High-fat food gives increased”.

For the compound `O=C1C(O)=C([C@H]2CC[C@H](c3ccc(Cl)cc3)CC2)C(=O)c2ccccc21` [Atovaquone], the LogP is 4.9. Further, the “Food effect” value in data set [1] was “High-fat food gives increased”.

Consider `CC(C)/N=c1\cc2n(-c3ccc(Cl)cc3)c3ccccc3nc-2cc1Nc1ccc(Cl)cc1` [Clofazimine], for which, in data set [1], the “Food effect” value is “Increased absorption (2, 4)”.

With `C#C[C@]1(O)CC[C@H]2[C@@H]3CCC4=Cc5oncc5C[C@]4(C)[C@H]3CC[C@@]21C` [Danazol], the lipophilicity (LogP) is listed as 4.3.

For `CCOC(=O)/C=C(C)/C=C/C=C(C)/C=C/c1c(C)cc(OC)c(C)c1C` [Etretinate], the LogP is 6.6.

Turning to `CCOC(=O)C1=C(C)NC(C)=C(C(=O)OC)C1c1cccc(Cl)c1Cl` (stereo not shown) [Felodipine], in data set [1], the “Food effect” value is “High-fat food gives increased”.

In the case of `CC1=C(/C=C/C(C)=C/C=C/C(C)=C/C(=O)Nc2ccc(O)cc2)C(C)(C)CCC1` [Fenretinide], the LogP is 6.1. For the same compound, the “Food effect” value in data set [1] is “High-fat food gives increased”.

Consider `CC1=C(/C=C/C(C)=C/C=C/C(C)=C\C(=O)O)C(C)(C)CCC1` [Isotretinoin], for which, in data set [1], the “Food effect” value was “Increased absorption (7)”.

`CCC(C)n1ncn(-c2ccc(N3CCN(c4ccc(OCC5COC(Cn6cncn6)(c6ccc(Cl)cc6Cl)O5)cc4)CC3)cc2)c1=O` (stereo not shown) [Itraconazole]: the LogP is given as 5.7. Further, in data set [1], the “Food effect” value is given as “Increased but delayed absorption”.

Regarding `CCOC(=O)N1CCC(=C2c3ccc(Cl)cc3CCc3cccnc32)CC1` [Loratadine], the “Food effect” value in data set [1] is given as “Increased but delayed absorption”.

In the case of `CCCCN(CCCC)CC(O)c1cc(Cl)cc2c1-c1ccc(Cl)cc1/C2=C/c1ccc(Cl)cc1` (stereo not shown) [Lumefantrine], the LogP was 8.9. The “Food effect” value in data set [1] is reported as “High-fat food gives increased”.

With `COC(=O)C1=C(C)NC(C)=C(C(=O)OCCN2CCN(C(c3ccccc3)c3ccccc3)CC2)C1c1cccc([N+](=O)[O-])c1` (stereo not shown) [Manidipine], the LogP is recorded as 4.1. Moreover, the “Food effect” value in data set [1] is “Increased absorption (2)”.

`Cc1c(-c2cnccn2)ssc1=S` [Oltipraz]: the lipophilicity (LogP) is given as 1.7. The “Food effect” value in data set [1] was “Increased absorption (6)”.

For the compound `O=C(c1ccc(OCCN2CCCCC2)cc1)c1c(-c2ccc(O)cc2)sc2cc(O)ccc12` [Raloxifene], the lipophilicity (LogP) is recorded as 5.5.

As to `NC(=O)c1ncn([C@@H]2O[C@H](CO)[C@@H](O)[C@H]2O)n1` [Ribavirin], the log partition coefficient (LogP) was −1.9. Also, in data set [1], the “Food effect” value is given as “High-fat food gives increased”.

As for `CC(C)c1nc(CN(C)C(=O)N[C@H](C(=O)N[C@@H](Cc2ccccc2)C[C@H](O)[C@H](Cc2ccccc2)NC(=O)OCc2cncs2)C(C)C)cs1` [Ritonavir], in data set [1], the “Food effect” value is on record as “Increased absorption (1, 4, 5)”.

On to `NC(=O)c1cn(Cc2c(F)cccc2F)nn1` [Rufinamide], for which the LogP is 0.8.

For the compound `CC(C)(C)NC(=O)[C@@H]1C[C@@H]2CCCC[C@@H]2CN1C[C@@H](O)[C@H](Cc1ccccc1)NC(=O)[C@H](CC(N)=O)NC(=O)c1ccc2ccccc2n1` [Saquinavir], the log partition coefficient (LogP) is 3.8.

Regarding `CO[C@H]1C[C@@H]2CC[C@@H](C)[C@@](O)(O2)C(=O)C(=O)N2CCCC[C@H]2C(=O)O[C@H]([C@H](C)C[C@@H]2CC[C@@H](O)[C@H](OC)C2)CC(=O)[C@H](C)/C=C(\C)[C@@H](O)[C@@H](OC)C(=O)[C@H](C)C[C@H](C)/C=C/C=C/C=C/1C` [Sirolimus], the LogP is 5.3. Further, in data set [1], the “Food effect” value is reported as “High-fat food gives increased”.

As to `CC(=O)S[C@@H]1CC2=CC(=O)CC[C@]2(C)[C@H]2CC[C@@]3(C)[C@@H](CC[C@@]34CCC(=O)O4)[C@H]12` [Spironolactone], the log partition coefficient (LogP) was 2.8. Further, in data set [1], the “Food effect” value is “Increased absorption and reduced”.

`CC(C)OC(=O)OCOP(=O)(CO[C@H](C)Cn1cnc2c(N)ncnc21)OCOC(=O)OC(C)C` [Tenofovir disoproxil]: the LogP is on record as 0.6. In addition, the “Food effect” value in data set [1] is given as “High-fat food gives increased”.

`CCCC(CCC)C(=O)O` [Valproic acid]: the “Food effect” value in data set [1] was “Delayed absorption and reduced”.
